From article PMC9127186, “Molecular Basis Underlying Hepatobiliary and Renal Excretion of Phenolic Acids of Salvia miltiorrhiza Roots (Danshen)” (Frontiers in Pharmacology, 2022)

Target: T1, rat Mrp4 (Rattus norvegicus, UniProt F1M3J4)
T1 sequence (F1M3J4 1-1325): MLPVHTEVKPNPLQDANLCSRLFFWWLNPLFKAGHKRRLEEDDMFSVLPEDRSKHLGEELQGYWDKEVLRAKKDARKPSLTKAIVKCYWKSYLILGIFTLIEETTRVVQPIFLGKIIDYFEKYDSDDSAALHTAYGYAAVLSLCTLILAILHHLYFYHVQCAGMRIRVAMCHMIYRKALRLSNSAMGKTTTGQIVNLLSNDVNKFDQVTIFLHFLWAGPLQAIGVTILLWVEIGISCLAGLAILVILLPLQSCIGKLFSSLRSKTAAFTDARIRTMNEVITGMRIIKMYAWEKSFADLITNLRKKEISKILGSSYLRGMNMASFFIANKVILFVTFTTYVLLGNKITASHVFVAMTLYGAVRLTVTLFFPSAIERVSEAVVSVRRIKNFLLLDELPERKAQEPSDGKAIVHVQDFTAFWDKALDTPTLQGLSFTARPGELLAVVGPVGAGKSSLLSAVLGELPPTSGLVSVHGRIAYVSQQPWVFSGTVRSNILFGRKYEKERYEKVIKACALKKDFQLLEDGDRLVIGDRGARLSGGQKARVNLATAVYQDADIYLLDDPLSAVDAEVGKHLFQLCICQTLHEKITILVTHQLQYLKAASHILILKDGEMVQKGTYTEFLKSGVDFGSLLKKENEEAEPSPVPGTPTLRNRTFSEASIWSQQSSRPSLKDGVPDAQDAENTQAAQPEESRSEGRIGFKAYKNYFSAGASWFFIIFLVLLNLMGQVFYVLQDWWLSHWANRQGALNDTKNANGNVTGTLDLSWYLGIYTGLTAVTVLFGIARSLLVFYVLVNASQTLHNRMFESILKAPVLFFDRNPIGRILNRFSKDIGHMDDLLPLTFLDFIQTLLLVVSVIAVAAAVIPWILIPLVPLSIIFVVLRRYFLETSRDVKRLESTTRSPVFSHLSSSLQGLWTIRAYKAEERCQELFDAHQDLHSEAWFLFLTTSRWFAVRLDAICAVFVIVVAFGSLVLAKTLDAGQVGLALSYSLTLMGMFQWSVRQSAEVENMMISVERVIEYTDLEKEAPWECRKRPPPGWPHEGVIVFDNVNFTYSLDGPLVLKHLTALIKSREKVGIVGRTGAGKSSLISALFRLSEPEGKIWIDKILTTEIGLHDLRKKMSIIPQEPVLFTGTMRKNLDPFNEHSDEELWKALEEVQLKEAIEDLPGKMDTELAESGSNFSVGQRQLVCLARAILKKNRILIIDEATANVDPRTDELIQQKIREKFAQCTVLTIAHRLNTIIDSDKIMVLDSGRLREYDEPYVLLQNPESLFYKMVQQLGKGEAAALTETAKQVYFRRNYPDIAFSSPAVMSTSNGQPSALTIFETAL
Test: Vesicular transport assay, inside-out membrane vesicles expressing rat Mrp4
Settings: for TransportATP/TransportAMP ratio (net transport ratio): 10 min
Experimental: Inside-out membrane vesicles (5 mg protein/mL), prepared from insect cells expressing human multidrug resistance-associated protein (MRP) 2, MRP3, MRP4, breast cancer resistance protein (BCRP), bile salt export pump (BSEP), and multidrug resistance protein (MDR) one and rat Mrp2, Mrp4, Bcrp, and Bsep, and vesicles (5 mg protein/mL; prepared from the insect cells expressing no ABC transporter; serving as negative control) were obtained from Genomembrane (Kanazawa, Japan).
The test Danshen compounds at 100 µM final concentration were separately incubated with the membrane vesicles for 10 min. Buffer C (50 mM MOPS-tris, 70 mM KCl, 7.5 mM MgCl2, pH 7.0) was used for preincubation and incubation, while buffer D (40 mM MOPS-tris, 70 mM KCl, pH 7.0) was used for vesicle washing. The transport rate (pmol/mg protein/min) of the test Danshen compound was calculated using Equation (2): Transport=(CV×VV)/T/WV (2) where C V, V V, T, and W V represent concentration of the compound in vesicular lysates supernatant (μM), volume of the lysates (μL), incubation time (10 min), and amount of vesicle protein amount per well (0.05 mg), respectively. Differential transport of the test Danshen compound between ATP-containing vesicles and AMP-containing vesicles was defined as net transport ratio (TransportATP/TransportAMP ratio). […] All the incubation samples were analyzed by liquid chromatography/mass spectrometry.

[1] = Danshen phenolic acid at 100 μM final concentration, rat Mrp4 vesicles

Compound: O=C(/C=C/c1ccc(O)c2c1[C@H](C(=O)O)[C@@H](c1ccc(O)c(O)c1)O2)O[C@H](Cc1ccc(O)c(O)c1)C(=O)O [Lithospermic acid, lithospermic acid]
- TransportATP/TransportAMP ratio (net transport ratio) [1]: 1.46 ± 0.01

Compound: O=C(O)c1ccc(O)c(O)c1 [Protocatechuic acid, protocatechuic acid]
- TransportATP/TransportAMP ratio (net transport ratio) [1]: 1.17 ± 0.06

Compound: O=C(/C=C/c1ccc(O)c(O)c1)O[C@H](Cc1ccc(O)c(O)c1)C(=O)O [Rosmarinic acid, rosmarinic acid]
- substrate of rat Mrp4: substrates
- TransportATP/TransportAMP ratio (net transport ratio) (rat, 100 μM, pH 7): 4.79 ± 0.38

Compound: O=C(/C=C/c1ccc(O)c(O)c1/C=C/c1ccc(O)c(O)c1)O[C@H](Cc1ccc(O)c(O)c1)C(=O)O [Salvianolic acid A, salvianolic acid A]
- TransportATP/TransportAMP ratio (net transport ratio) (rat, 100 μM, pH 7): 2.09 ± 0.25

Compound: O=C(O)Cc1c(/C=C/C(=O)O[C@H](Cc2ccc(O)c(O)c2)C(=O)O)ccc(O)c1O [Salvianolic acid D, salvianolic acid D]
- substrate of rat Mrp4: substrates
- TransportATP/TransportAMP ratio (net transport ratio) [1]: 11.1 ± 0.2

Compound: salvianolic acid B
- TransportATP/TransportAMP ratio (net transport ratio) [1]: 2.15 ± 0.32
